Several values for one entry are separate records, joined by “and”; a condition that tells them apart may be missing. Equal entries are not always repeated. Where two headings read alike, the source gives them in different places.
Columns and labels:
eIF4E [1] = target: T1, eIF4E (Homo sapiens, UniProt P06730); assay: Binding affinities to eIF4E using surface plasmon resonance (SPR)
Procedure: (§3) A sensor chip SA (GE Healthcare) is docked into a Biacore 3000 instrument.
(§4) Compound concentration series are injected over the immobilized protein serially in increasing concentration. Interaction models are fitted globally to the experimental traces, enabling determination of Kd or KD (binding affinity; unit: M) and possibly kon (on-rate, calculated from the association phase; unit: M^−1s^−1) and koff (off-rate, calculated from the dissociation phase; unit: s^−1).
(§5) A sensor chip (SAD5001 or SA) was docked into a Biacore 3000 instrument, washed with 50 mM NaOH, 1M NaCl. Protein eIF4E was diluted in running buffer (50 mM HEPES, 150 mM KCl, 10 mM MgCl2, 2 mM TCEP) to ˜1 μM. The diluted protein solution was injected for 300-600 seconds. Typical capture levels were 5000-6000 RU.
(§6) Test compounds were solubilized in ddH2O or DMSO to 10 mM. 100 μM stocks were prepared by 100-fold dilution in running buffer (50 mM HEPES, 150 mM KCl, 10 mM MgCl2). Assay was run with or without 1% DMSO.
(§7) Data were analyzed in GeneData. Curve fit was accepted or rejected by looking at the resulting sensorgrams and steady state fits.
(§8) Assay has been validated using running buffer with and without DMSO. […] Further, newly captured protein stabilizes slowly, leading to negative responses during the dissociation phase for compounds injected over newly captured protein.

eIF4E [2] = target: T1, eIF4E; assay: biochemical
Procedure: as §3, §4, §5, §6, §7, §8

T7 RNA Polymerase = T7 RNA Polymerase (Escherichia phage T7, UniProt P00573); assay: Cotranscriptional capping of hEPO mRNA by in vitro transcription (capping fraction); format: biochemical; conditions: hEPO mRNA used in the in vivo assay
Sequence of T7 RNA Polymerase (P00573 whole entry): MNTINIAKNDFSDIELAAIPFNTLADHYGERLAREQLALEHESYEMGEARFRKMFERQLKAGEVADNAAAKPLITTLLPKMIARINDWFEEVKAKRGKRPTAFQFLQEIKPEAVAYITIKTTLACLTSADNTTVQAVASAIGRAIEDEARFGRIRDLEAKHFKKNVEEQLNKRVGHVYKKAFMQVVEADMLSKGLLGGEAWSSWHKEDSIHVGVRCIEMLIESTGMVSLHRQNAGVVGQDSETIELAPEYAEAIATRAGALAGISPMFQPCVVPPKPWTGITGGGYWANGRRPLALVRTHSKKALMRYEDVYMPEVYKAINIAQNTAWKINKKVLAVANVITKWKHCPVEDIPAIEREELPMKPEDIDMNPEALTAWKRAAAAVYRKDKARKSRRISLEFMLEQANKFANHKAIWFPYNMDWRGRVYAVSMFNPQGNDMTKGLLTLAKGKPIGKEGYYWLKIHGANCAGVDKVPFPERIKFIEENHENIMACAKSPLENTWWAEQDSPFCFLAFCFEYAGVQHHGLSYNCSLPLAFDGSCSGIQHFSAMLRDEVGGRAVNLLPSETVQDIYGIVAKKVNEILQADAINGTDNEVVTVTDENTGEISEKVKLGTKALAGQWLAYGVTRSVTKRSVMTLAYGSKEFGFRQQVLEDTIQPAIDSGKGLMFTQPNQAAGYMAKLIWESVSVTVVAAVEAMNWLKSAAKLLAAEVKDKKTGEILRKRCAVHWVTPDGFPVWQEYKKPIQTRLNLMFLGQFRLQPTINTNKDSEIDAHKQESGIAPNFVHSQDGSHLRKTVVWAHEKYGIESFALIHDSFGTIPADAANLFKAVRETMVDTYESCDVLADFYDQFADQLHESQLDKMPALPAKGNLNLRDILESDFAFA
Procedure: The target mRNAs are prepared following IVT Reaction Protocol—Cotranscriptional capping described herein.
Ratio of A:U:C:G varies between 1:1:1:0.1 and 1:1:1:1, with the cap added in 10-fold excess to G. • 2. T7 RNA polymerase is added after other components except for water. • 3. Water is added for a total reaction volume of 100 uL. • 4. The mixture is mixed well and spun down in a benchtop centrifuge for 1 minute. • 5. The cocktail is incubated at 37 degrees for 4 hours. • 6. 2.5 uL of RNase free DNase I is added. • 7. The cocktail is incubated at 37° C. for 45 minutes.
As described in this Example, each of A, U, C, and G includes both unmodified and modified NTP. After the IVT reaction is complete, the mixture is cleaned using membrane purification (MegaClear or equivalent), and Oligo dT. Sample concentration is determined using a spectrophotometer, and degradation is quantitated using a bioanalyzer.

HeLa Lysate [3] = assay: Cell free translation assay, mCitrine mRNA carrying the cap analogs; format: biochemical; conditions: 5-methoxy uridine modRNA
Procedure: (§1) The in vitro translation assay was conducted with the HeLa 1-step coupled IVT kit (ThermoFisher Scientific, Waltham, Mass.) according to the manufacturer's instructions to assess performance of new cap analogs as free compounds or as an integral part of capped mRNA. Cap analogs with affinity to eIF4E protein may reduce protein synthesis rate in cell-free translation. Further, RNAs containing such cap analogs (“Cap-modRNA”) show different potency of protein synthesis in cell-free translation.
The modified RNAs (“modRNAs”) of eGFP and mCitrine-degron, harboring chemical modifications on either the CAP structures, selected ribose units and/or the bases, were diluted in sterile nuclease-free water to a final amount of 500 ng in 5 uL. This volume was added to 20 uL of freshly prepared HeLa Lysate. The in vitro translation reaction was done in a standard 96-well round bottom plate (Corning, Corning, N.Y.), covered with an self-adhesive fluorescence-compatible seal (BioRad, Hercules, Calif.) at 30° C. inside the plate reader Cytation 3 (BioTek, Winooski, Vt.).
The fluorescent signal per reaction increased over time and is considered proportional to the occurring protein synthesis. Each cell-free translation reaction was monitored for 120-180 min with the following settings: eGFP protein—ex. 485 nm, em. […] 545, gain 70 or 80. The height of the reading head was set to 1 mm above the plate and a reading speed of one per sample every 17 seconds. The results of modRNAs with various caps are illustrated in FIGS. 3A-3B.
(§2) Cell free translation assays were also conducted using modRNAs comprises 5-methoxy uridine, which replaces each uridine in the RNA sequence, except otherwise specified. The results are shown in FIGS. 5A-5B and 6A-6B, and Tables 12 and 13. Table 12 discloses the measured mCitrine levels after 3 hours of a cell-free translation assay.

HeLa Lysate [4] = assay: Cell free translation assay, hEPO mRNA carrying the cap analogs; format: biochemical; conditions: 5-methoxy uridine modRNA
Procedure: In FIG. 5A, “mod mRNA” refers to a modified mRNA comprising N1-methyl pseudouridine, which replaces each uridine in the RNA sequence. FIG. 5 B presents the results of a cell free translation assay using mRNAs carrying different cap analogs, normalized to capping and concentration of each capped mRNA (see also Table 13).
as §1, §2
Table 13 discloses the hEPO levels after 3 hours of a cell-free translation assay.

eIF4E [5] = target: T1, eIF4E
Procedure: as §3, §4, §5, §6, §7, §8

[6] = test system: human primary hepatocytes; assay: Cell-based expression in human primary hepatocytes of mRNAs carrying the cap analogs; conditions: mRNA carrying the cap, 5-methoxy uridine; 008-7 Cap0-like, all other caps Cap1-like
CD-1 mice = assay: In vivo expression assay, hEPO mRNA in MC3-based LNP; conditions: iv bolus 0.05 mg/kg, 6 h after injection, 008-7 Cap0-like, others Cap1-like
Procedure: mRNAs encoding hEPO were synthesized according to the method described in Example 2 above, co-transcriptionally incorporating cap analogs of the disclosure. […] A MC3-based lipid nanoparticle (LNP) formulation of the synthesized mRNA was produced, and was intravenously administered to CD-1 mice (n=3) at a bolus dose of 0.05 mg/kg. The level of hEPO was tested at 6 h, 24 h, or 48 h after injection.

HeLa Lysate [7] = assay: Cap competition assay in kinetic cell free in vitro translation (free cap analogs); format: biochemical; conditions: free cap analog 0-100 uM against Cap1-tipped eGFP modRNA, fluorescence plateau
Procedure: as §1
For competition assays, the total volume of the cell-free translation reaction was increased to 27.8 uL by addition of either water or diluted free CAP analogs in water. The stock concentration of the free CAP analogs was 1 mM. With two-fold dilutions in water, the concentration was reduced sequentially. […] The CAP analogs used in this study were either commercial products serving as reference material (TriLink, San Diego, Calif.) or compounds disclosed herein. It is hypothesized that the small molecule cap analogs interfere with the assembly of the “closed loop” in a Kd-dependent fashion.
After the fluorescent signal in cell-free translation reaction reached a stable plateau, absolute values thereof were transferred to a statistical analysis program (GraphPad Software, La Jolla, Calif.) and curve fitting or IC50 calculations were derived with settings according to the instructions of the manufacturer.
The results from the cap competition assays are illustrated in FIGS. 1A-1C and 2A-2D. In this study, each of the modRNAs used comprises 1-methyl-pseudouridine, which replaces each uridine in the RNA sequence and 5-methyl cytidine, which replaces each cytidine in the RNA sequence. Further, Table 11 includes the IC50 values of certain compounds of the disclosure.

[8] = residence time as listed in Table 12
[9] = residence time as listed in Table 13

T1 sequence (P06730 32-217): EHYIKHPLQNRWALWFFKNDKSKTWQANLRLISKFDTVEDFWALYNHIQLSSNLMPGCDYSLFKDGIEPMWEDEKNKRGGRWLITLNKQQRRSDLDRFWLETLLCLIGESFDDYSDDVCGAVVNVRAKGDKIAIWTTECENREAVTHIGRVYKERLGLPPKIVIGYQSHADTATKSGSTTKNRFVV

Row | Compound | Kd (eIF4E [2]) | capping %/100 (T7 RNA Polymerase) | Ave norm (mCitrine levels after 3 hours of a cell-free translation assay) (HeLa Lysate [3]) | CFT (norm to conc. & capping & cap1), hEPO levels after 3 hours of a cell-free translation assay (HeLa Lysate [4]) | koff (eIF4E [5]) | τ (eIF4E [1]; [9]) | IC50 (HeLa Lysate [7]) | τ (eIF4E [1]; [8]) | also measured
1 | CO[C@@H]1[C@H](O)[C@@H](COP(=O)(O)OP(=O)([S-])OP(=O)(O)OC[C@H]2O[C@@H](n3cnc4c(=O)[nH]c(N)nc43)[C@H](O)[C@@H]2O)O[C@H]1n1c[n+](C)c2c(=O)[nH]c(N)nc21 (single isomer, unassigned) [Compound 005-30 (D1)] | 0.7 µM | 0.65 (D1) %/100 | 0.44 (D1); | 0.79 (D1) |  |  |  |  | τ (s) (eIF4E [1]; [8]): 15 (D1); s; τ (s) (eIF4E [1]; [9]): 14.9 (D1) s
2 | CO[C@@H]1[C@H](O)[C@@H](COP(=O)(O)OP(=O)([S-])OP(=O)(O)OC[C@H]2O[C@@H](n3cnc4c(=O)[nH]c(N)nc43)[C@H](O)[C@@H]2O)O[C@H]1n1c[n+](C)c2c(=O)[nH]c(N)nc21 (single isomer, unassigned) [Compound 005-30 (D2)] | 1.1 µM | 0.71 (D2) %/100 | 0.84 (D2) | 1.66 (D2) |  |  |  |  | τ (s) (eIF4E [1]; [8]): 10 (D2) s; τ (s) (eIF4E [1]; [9]): 10.4 (D2) s
3 | CO[C@H]1[C@@H](O)[C@H](n2c[n+](C)c3c(=O)[nH]c(N)nc32)O[C@@H]1COP(=O)(O)OP(=O)(O)OP(=O)(O)OC[C@H]1O[C@@H](n2cnc3c(=O)[nH]c(N)nc32)[C@H](O)[C@@H]1O [ARCA, m7(3′-Om)GpppG, reference compound] |  | 0.86 %/100 |  | 1.93 | 1.67 s⁻¹ | 0.6 s |  |  | Kd (eIF4E [5]): 2 to 3 µM; h-primHeps norm to Capping and Cap1 [6]: 1.52; in vivo hEPO normalized to capping and Cap1 (CD-1 mice): 0.70
4 | BP(=O)(OP(=O)([O-])OC[C@H]1O[C@@H](n2c[n+](C)c3c(=O)[nH]c(N)nc32)[C@H](O)[C@@H]1O)OP(=O)([O-])OC[C@H]1O[C@@H](n2c[n+](C)c3c(=O)[nH]c(N)nc32)[C@H](O)[C@@H]1O [Compound 005-4] | 0.7 to 1 µM and 1 µM |  | 0.24 |  |  |  | 5 µM |  | τ (eIF4E [1]): 4.17 s and 4.2 s; koff (eIF4E [1]; read-out: koff (s^−1)): 0.24 s⁻¹
5 | C[n+]1cn([C@@H]2O[C@H](COP(=O)([O-])OP(=O)([O-])OP(=O)(O)OC[C@H]3O[C@@H](n4c[n+](C)c5c(=O)[nH]c(N)nc54)[C@H](O)[C@@H]3O)[C@@H](O)[C@H]2O)c2nc(N)[nH]c(=O)c21 [Compound 005-10] | 2.7 µM and 3 µM | 0.91 %/100 |  | 0.83 | 0.26 s⁻¹ | 3.8 s | 14 µM |  | 
6 | COCCO[C@@H]1[C@H](O)[C@@H](COP(=O)(O)OP(=O)([S-])OP(=O)(O)OC[C@H]2O[C@@H](n3cnc4c(=O)[nH]c(N)nc43)[C@H](O)[C@@H]2O)O[C@H]1n1c[n+](CCOc2ccc(Cl)cc2)c2c(=O)[nH]c(N)nc21 (stereo partly drawn) [Compound 005-34] | 0.01 µM | 0.94 %/100 | 2.51 | 2.71 | 0.02 s⁻¹ | 50 s |  | 50 s | 
7 | Nc1nc2c(ncn2[C@@H]2O[C@H](COP(=O)(O)OP(=O)([O-])OP(=O)(O)OC[C@H]3O[C@@H](n4c[n+](CCOc5ccc(Cl)cc5)c5c(=O)[nH]c(N)nc54)[C@@H](O)[C@@H]3O)[C@@H](O)[C@H]2O)c(=O)[nH]1 [Compound 005-35] |  | 1 %/100 |  | 1.02 |  | 9.1 s |  |  | 
8 | C[n+]1cn([C@H]2CN(CCO)C[C@@H](COP(=O)([O-])OP(=O)(O)OP(=O)(O)OC[C@H]3O[C@@H](n4cnc5c(=O)[nH]c(N)nc54)[C@H](O)[C@@H]3O)O2)c2nc(N)[nH]c(=O)c21 [Compound 006-3] | 8 to 9 µM and 9 µM |  |  |  | 0.6 s⁻¹ |  | 33 µM |  | 
9 | COc1ccc(CN2CC(COP(=O)([O-])OP(=O)(O)OP(=O)(O)OCC3OC(n4cnc5c(=O)[nH]c(N)nc54)C(O)C3O)OC(n3c[n+](C)c4c(=O)[nH]c(N)nc43)C2)cc1 (stereo not drawn) [Compound 006-26] |  |  | 0.50 |  |  |  |  | 3.3 s | 
10 | CN(C)CCN1CC(COP(=O)(O)OP(=O)([O-])OP(=O)(O)OC[C@H]2O[C@@H](n3cnc4c(=O)[nH]c(N)nc43)[C@H](O)[C@@H]2O)OC(n2c[n+](C)c3c(=O)[nH]c(N)nc32)C1 (stereo partly drawn) [Compound 006-44] |  |  | 0.31 |  |  |  |  | 0.8 s | 
11 | CN1CC(COP(=O)(O)OP(=O)([O-])OP(=O)(O)OC[C@H]2O[C@@H](n3cnc4c(=O)[nH]c(N)nc43)[C@H](O)[C@@H]2O)OC(n2c[n+](CCOc3ccc(Cl)cc3)c3c(=O)[nH]c(N)nc32)C1 (stereo partly drawn) [Compound 006-45] |  | 0.95 %/100 | 0.74 | 0.48 |  | 11.6 s |  | 11.6 s | 
12 | C[n+]1cn(C2CN(Cc3ccccc3)CC(COP(=O)(O)OP(=O)([S-])OP(=O)(O)OC[C@H]3O[C@@H](n4cnc5c(=O)[nH]c(N)nc54)[C@H](O)[C@@H]3O)O2)c2nc(N)[nH]c(=O)c21 (stereo partly drawn) [Compound 006-46] |  |  | 0.77 |  |  |  |  | 3.4 s | 
13 | C[n+]1cn([C@@H]2O[C@H](COP(=O)(O)OP(=O)(O)OP(=O)(O)OC[C@H]3O[C@@H](n4cnc5c(=O)[nH]c(N)nc54)[C@H](O)[C@@H]3O)[C@@H](O)[C@@]2(C)O)c2nc(N)[nH]c(=O)c21 [Compound 007-1] | 11 µM |  |  |  | 1 s⁻¹ |  | 179 µM |  | 
